Measurements published in patent US11231416B2, “Virus-like particle (VLP) based small molecule-protein interaction trap” (VIB VZW, priority 2015, dated 2022).

Tests used:
[1] = molecular target: T1, IGF1R (Homo sapiens, UniProt P08069); experiment: Viral trapping in VLPs, MS analysis; type: binding
T1 construct: endogenous in cells; host or cells: HEK293T

[2] = molecular target: T2, INSR (Homo sapiens, UniProt P06213); experiment: Viral trapping in VLPs, MS analysis; type: binding
T2 construct: endogenous in cells; host or cells: HEK293T

[3] = molecular target: T3, NQO2 (Homo sapiens, UniProt P16083); experiment: Viral trapping in VLPs, MS analysis; type: binding
T3 construct: endogenous in cells; host or cells: HEK293T

[4] = molecular target: T4, APMAP (Homo sapiens, UniProt Q9HDC9); experiment: Viral trapping in VLPs, MS analysis; type: binding; details: all proteins (incl. low confidence identifications)
T4 construct: endogenous in cells; host or cells: HEK293T

[5] = molecular target: T5, BZW1 (Homo sapiens, UniProt Q7L1Q6); experiment: Viral trapping in VLPs, MS analysis; type: binding; details: all proteins (incl. low confidence identifications)
T5 construct: endogenous in cells; host or cells: HEK293T

[6] = molecular target: T6, CAMKV (Homo sapiens, UniProt Q8NCB2); experiment: Viral trapping in VLPs, MS analysis; type: binding; details: all proteins (incl. low confidence identifications)
T6 construct: endogenous in cells; host or cells: HEK293T

[7] = molecular target: T7, CTNNA2 (Homo sapiens, UniProt P26232); experiment: Viral trapping in VLPs, MS analysis; type: binding; details: all proteins (incl. low confidence identifications)
T7 construct: endogenous in cells; host or cells: HEK293T

[8] = molecular target: T8, DYNC2H1 (Homo sapiens, UniProt Q8NCM8); experiment: Viral trapping in VLPs, MS analysis; type: binding; details: all proteins (incl. low confidence identifications)
T8 construct: endogenous in cells; host or cells: HEK293T

[9] = molecular target: T9, FKBP3 (Homo sapiens, UniProt Q00688); experiment: Viral trapping in VLPs, MS analysis; type: binding; details: all proteins (incl. low confidence identifications)
T9 construct: endogenous in cells; host or cells: HEK293T

[10] = molecular target: T10, GAK (Homo sapiens, UniProt O14976); experiment: Viral trapping in VLPs, MS analysis; type: binding; details: all proteins (incl. low confidence identifications)
T10 construct: endogenous in cells; host or cells: HEK293T

[11] = molecular target: T11, GEMIN5 (Homo sapiens, UniProt Q8TEQ6); experiment: Viral trapping in VLPs, MS analysis; type: binding
T11 construct: endogenous in cells; host or cells: HEK293T

[12] = molecular target: T12, LMAN1 (Homo sapiens, UniProt P49257); experiment: Viral trapping in VLPs, MS analysis; type: binding; details: all proteins (incl. low confidence identifications)
T12 construct: endogenous in cells; host or cells: HEK293T

[13] = molecular target: T13, MBTPS1 (Homo sapiens, UniProt Q14703); experiment: Viral trapping in VLPs, MS analysis; type: binding; details: all proteins (incl. low confidence identifications)
T13 construct: endogenous in cells; host or cells: HEK293T

[14] = molecular target: T14, MFI2 (Homo sapiens, UniProt P08582); experiment: Viral trapping in VLPs, MS analysis; type: binding; details: all proteins (incl. low confidence identifications)
T14 construct: endogenous in cells; host or cells: HEK293T

[15] = molecular target: T15, MST1R (Homo sapiens, UniProt Q04912); experiment: Viral trapping in VLPs, MS analysis; type: binding; details: all proteins (incl. low confidence identifications)
T15 construct: endogenous in cells; host or cells: HEK293T

[16] = molecular target: T16, MYO1D (Homo sapiens, UniProt O94832); experiment: Viral trapping in VLPs, MS analysis; type: binding; details: all proteins (incl. low confidence identifications)
T16 construct: endogenous in cells; host or cells: HEK293T

[17] = molecular target: T17, NEK2 (Homo sapiens, UniProt P51955); experiment: Viral trapping in VLPs, MS analysis; type: binding; details: all proteins (incl. low confidence identifications)
T17 construct: endogenous in cells; host or cells: HEK293T

[18] = molecular target: T18, NT5C (Homo sapiens, UniProt Q8TCD5); experiment: Viral trapping in VLPs, MS analysis; type: binding; details: all proteins (incl. low confidence identifications)
T18 construct: endogenous in cells; host or cells: HEK293T

[19] = molecular target: T19, PPM1L (Homo sapiens, UniProt Q5SGD2); experiment: Viral trapping in VLPs, MS analysis; type: binding; details: all proteins (incl. low confidence identifications)
T19 construct: endogenous in cells; host or cells: HEK293T

[20] = molecular target: T20, RCL (Homo sapiens, UniProt O43598); experiment: Viral trapping in VLPs, MS analysis; type: binding
T20 construct: endogenous in cells; host or cells: HEK293T

[21] = molecular target: T21, RPS6KA1 (Homo sapiens, UniProt Q15418); experiment: Viral trapping in VLPs, MS analysis; type: binding; details: all proteins (incl. low confidence identifications)
T21 construct: endogenous in cells; host or cells: HEK293T

[22] = molecular target: T22, TMEM30A (Homo sapiens, UniProt Q9NV96); experiment: Viral trapping in VLPs, MS analysis; type: binding; details: all proteins (incl. low confidence identifications)
T22 construct: endogenous in cells; host or cells: HEK293T

[23] = molecular target: T23, TMEM9 (Homo sapiens, UniProt Q9P0T7); experiment: Viral trapping in VLPs, MS analysis; type: binding; details: all proteins (incl. low confidence identifications)
T23 construct: endogenous in cells; host or cells: HEK293T

[24] = molecular target: T24, TMX1 (Homo sapiens, UniProt Q9H3N1); experiment: Viral trapping in VLPs, MS analysis; type: binding; details: all proteins (incl. low confidence identifications)
T24 construct: endogenous in cells; host or cells: HEK293T

[25] = molecular target: T25, USP7 (Homo sapiens, UniProt Q93009); experiment: Viral trapping in VLPs, MS analysis; type: binding; details: all proteins (incl. low confidence identifications)
T25 construct: endogenous in cells; host or cells: HEK293T

[26] = molecular target: T26, YIPF5 (Homo sapiens, UniProt Q969M3); experiment: Viral trapping in VLPs, MS analysis; type: binding; details: all proteins (incl. low confidence identifications)
T26 construct: endogenous in cells; host or cells: HEK293T

[27] = molecular target: T27, ZNF827 (Homo sapiens, UniProt Q17R98); experiment: Viral trapping in VLPs, MS analysis; type: binding; details: all proteins (incl. low confidence identifications)
T27 construct: endogenous in cells; host or cells: HEK293T

[28] = tested on: HTRA3; details: all proteins (incl. low confidence identifications)
[29] = all proteins (incl. low confidence identifications)
[30] = proteins identified with >1 peptide (high confidence)

T2 sequence (P06213 28-1382): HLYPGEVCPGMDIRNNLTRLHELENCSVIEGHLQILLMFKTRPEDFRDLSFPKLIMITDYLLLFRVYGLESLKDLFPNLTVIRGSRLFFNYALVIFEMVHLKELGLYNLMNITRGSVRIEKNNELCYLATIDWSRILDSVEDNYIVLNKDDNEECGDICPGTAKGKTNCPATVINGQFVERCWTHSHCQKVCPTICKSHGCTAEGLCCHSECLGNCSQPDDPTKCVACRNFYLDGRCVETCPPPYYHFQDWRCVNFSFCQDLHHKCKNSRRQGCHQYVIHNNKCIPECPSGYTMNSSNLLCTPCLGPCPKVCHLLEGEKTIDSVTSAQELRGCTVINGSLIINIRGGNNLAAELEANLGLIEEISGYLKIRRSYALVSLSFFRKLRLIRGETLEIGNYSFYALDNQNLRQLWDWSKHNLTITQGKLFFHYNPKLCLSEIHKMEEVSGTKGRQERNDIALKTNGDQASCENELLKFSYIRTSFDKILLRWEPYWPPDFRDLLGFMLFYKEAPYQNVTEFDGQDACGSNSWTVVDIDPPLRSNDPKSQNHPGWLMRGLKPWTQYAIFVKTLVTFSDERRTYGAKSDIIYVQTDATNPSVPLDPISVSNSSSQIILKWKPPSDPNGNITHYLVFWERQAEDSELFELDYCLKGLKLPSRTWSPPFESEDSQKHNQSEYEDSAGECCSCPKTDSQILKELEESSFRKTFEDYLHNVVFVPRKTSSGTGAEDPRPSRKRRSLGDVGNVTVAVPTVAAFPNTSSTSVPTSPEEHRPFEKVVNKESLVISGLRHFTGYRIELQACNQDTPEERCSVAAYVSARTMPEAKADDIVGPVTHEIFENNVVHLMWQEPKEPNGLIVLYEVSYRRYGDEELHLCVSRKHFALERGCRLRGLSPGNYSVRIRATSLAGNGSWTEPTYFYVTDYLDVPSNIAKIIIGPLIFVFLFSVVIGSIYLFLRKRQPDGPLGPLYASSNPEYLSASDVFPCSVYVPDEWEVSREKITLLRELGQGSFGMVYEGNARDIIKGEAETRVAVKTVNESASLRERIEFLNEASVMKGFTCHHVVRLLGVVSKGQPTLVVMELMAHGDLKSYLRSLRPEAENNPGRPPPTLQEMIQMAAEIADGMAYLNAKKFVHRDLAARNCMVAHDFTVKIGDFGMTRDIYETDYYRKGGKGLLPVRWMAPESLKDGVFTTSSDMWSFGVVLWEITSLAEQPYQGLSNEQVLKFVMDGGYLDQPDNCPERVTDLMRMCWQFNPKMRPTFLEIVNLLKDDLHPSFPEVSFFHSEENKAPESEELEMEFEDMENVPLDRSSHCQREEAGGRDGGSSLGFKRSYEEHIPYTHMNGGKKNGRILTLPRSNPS
T20 sequence (O43598 whole entry): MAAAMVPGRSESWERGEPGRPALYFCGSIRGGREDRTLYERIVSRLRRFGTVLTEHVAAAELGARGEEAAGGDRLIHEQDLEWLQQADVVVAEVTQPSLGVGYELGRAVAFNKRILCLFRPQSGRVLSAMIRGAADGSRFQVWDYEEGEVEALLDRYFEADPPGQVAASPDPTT
T3 sequence (P16083 whole entry): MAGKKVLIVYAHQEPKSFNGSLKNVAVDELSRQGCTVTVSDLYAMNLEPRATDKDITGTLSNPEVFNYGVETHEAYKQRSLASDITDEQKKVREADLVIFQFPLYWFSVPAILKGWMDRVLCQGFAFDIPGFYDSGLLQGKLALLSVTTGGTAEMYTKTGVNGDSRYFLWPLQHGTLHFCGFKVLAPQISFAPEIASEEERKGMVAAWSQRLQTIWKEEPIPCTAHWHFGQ
T1 sequence (P08069 31-1367): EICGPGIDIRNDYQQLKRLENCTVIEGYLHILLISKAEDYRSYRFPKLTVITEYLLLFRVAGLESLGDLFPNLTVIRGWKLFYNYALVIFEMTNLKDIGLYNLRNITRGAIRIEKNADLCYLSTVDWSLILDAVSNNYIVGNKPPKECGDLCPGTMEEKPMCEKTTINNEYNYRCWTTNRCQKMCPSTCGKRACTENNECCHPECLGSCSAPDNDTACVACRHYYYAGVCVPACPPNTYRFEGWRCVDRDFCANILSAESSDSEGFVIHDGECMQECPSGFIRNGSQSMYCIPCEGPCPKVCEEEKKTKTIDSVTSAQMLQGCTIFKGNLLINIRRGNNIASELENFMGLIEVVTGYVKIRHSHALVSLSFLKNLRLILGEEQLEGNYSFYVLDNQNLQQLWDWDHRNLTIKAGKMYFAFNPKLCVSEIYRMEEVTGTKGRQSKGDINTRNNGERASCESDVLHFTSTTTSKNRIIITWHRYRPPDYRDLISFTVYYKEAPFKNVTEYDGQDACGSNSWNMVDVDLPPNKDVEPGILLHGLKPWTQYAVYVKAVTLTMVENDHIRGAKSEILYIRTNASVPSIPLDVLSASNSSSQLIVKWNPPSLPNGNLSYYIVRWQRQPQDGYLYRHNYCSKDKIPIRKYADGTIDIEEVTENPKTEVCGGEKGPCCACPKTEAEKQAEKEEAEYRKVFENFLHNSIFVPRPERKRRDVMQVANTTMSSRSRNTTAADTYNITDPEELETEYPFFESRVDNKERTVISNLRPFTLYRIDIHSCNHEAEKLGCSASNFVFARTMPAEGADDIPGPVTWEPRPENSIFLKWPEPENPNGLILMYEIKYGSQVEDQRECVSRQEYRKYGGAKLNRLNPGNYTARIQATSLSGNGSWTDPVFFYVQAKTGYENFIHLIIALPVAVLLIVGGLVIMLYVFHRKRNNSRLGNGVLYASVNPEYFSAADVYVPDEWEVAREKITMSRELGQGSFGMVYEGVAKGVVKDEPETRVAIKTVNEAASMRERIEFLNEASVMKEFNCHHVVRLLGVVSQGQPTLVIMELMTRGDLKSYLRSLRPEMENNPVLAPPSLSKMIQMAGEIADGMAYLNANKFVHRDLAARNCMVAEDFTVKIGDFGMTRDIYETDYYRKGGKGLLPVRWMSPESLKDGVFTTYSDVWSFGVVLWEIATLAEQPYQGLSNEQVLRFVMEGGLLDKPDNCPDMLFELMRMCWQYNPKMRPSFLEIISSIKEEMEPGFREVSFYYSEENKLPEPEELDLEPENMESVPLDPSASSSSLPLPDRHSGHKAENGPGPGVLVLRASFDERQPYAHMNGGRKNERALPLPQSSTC
T11 sequence (Q8TEQ6 whole entry): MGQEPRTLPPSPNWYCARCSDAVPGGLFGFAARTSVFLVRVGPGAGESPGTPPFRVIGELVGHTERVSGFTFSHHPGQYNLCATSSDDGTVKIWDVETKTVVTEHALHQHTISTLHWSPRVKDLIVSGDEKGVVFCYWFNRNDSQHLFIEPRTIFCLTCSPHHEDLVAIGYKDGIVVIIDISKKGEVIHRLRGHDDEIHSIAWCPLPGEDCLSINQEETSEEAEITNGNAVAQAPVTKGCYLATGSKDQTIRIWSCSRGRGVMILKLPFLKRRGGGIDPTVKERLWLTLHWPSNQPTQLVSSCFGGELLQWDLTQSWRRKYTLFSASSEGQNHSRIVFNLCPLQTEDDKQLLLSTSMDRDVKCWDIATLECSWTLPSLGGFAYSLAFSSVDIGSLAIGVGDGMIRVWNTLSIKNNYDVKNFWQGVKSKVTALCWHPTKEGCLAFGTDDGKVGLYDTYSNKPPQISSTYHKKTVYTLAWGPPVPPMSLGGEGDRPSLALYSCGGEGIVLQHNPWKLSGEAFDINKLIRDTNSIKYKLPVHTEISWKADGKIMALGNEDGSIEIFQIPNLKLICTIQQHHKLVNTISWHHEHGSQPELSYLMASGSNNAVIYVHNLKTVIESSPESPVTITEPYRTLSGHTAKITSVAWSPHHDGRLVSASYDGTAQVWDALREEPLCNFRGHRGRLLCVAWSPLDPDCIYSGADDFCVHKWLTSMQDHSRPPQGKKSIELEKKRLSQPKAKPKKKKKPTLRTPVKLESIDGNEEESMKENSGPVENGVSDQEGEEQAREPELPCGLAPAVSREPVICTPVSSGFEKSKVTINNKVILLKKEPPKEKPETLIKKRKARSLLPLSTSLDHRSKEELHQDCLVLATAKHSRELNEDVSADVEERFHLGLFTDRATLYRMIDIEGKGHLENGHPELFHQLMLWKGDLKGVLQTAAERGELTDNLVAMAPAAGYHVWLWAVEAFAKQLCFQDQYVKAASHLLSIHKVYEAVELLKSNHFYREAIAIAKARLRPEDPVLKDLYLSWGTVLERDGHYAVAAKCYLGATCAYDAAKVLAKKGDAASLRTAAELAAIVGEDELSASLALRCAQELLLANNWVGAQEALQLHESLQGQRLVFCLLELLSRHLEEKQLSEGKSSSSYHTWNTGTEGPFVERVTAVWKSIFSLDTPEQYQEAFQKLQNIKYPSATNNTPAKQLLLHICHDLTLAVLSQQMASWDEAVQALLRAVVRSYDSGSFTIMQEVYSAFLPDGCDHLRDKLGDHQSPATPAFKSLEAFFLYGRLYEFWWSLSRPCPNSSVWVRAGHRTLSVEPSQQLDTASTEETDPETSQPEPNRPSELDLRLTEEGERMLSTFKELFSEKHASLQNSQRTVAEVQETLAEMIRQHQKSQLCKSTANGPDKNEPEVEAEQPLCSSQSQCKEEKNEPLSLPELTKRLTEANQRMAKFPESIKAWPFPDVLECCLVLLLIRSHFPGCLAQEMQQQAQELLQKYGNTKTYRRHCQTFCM
T12 sequence (P49257 31-510): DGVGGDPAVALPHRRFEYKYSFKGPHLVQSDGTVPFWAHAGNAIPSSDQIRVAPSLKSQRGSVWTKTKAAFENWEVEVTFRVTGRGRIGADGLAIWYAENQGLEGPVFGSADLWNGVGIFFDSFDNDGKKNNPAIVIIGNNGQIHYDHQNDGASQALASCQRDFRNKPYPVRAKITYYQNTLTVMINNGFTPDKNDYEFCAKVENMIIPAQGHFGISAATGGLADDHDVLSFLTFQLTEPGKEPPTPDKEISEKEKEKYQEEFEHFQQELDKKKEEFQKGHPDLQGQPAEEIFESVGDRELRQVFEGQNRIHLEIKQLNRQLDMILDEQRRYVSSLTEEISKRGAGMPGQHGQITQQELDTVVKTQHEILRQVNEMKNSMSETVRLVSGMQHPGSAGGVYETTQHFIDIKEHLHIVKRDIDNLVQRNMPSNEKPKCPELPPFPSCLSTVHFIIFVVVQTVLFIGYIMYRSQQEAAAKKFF

Recurrence (x/2) [1, 29]: 2 x/2
Recurrence (x/2) [1, 30]: 2 x/2
Recurrence (x/2) [2, 29]: 2 x/2
Recurrence (x/2) [2, 30]: 2 x/2
Recurrence (x/2) [3, 29]: 2 x/2
Recurrence (x/2) [3, 30]: 1 x/2
Recurrence (x/2) [4]: 1 x/2
Recurrence (x/2) [5]: 1 x/2
Recurrence (x/2) [6]: 1 x/2
Recurrence (x/2) [7]: 1 x/2
Recurrence (x/2) [8]: 1 x/2
Recurrence (x/2) [9]: 1 x/2
Recurrence (x/2) [10]: 1 x/2
Recurrence (x/2) [11, 29]: 1 x/2
Recurrence (x/2) [11, 30]: 1 x/2
Recurrence (x/2) [12]: 1 x/2
Recurrence (x/2) [13]: 1 x/2
Recurrence (x/2) [14]: 1 x/2
Recurrence (x/2) [15]: 1 x/2
Recurrence (x/2) [16]: 1 x/2
Recurrence (x/2) [17]: 1 x/2
Recurrence (x/2) [18]: 1 x/2
Recurrence (x/2) [19]: 1 x/2
Recurrence (x/2) [20, 29]: 1 x/2
Recurrence (x/2) [20, 30]: 1 x/2
Recurrence (x/2) [21]: 1 x/2
Recurrence (x/2) [22]: 1 x/2
Recurrence (x/2) [23]: 1 x/2
Recurrence (x/2) [24]: 1 x/2
Recurrence (x/2) [25]: 1 x/2
Recurrence (x/2) [26]: 1 x/2
Recurrence (x/2) [27]: 1 x/2
Structure (SMILES): CN(Cc1cnc2nc(N)nc(N)c2n1)c1ccc(C(=O)NC(CCC(=O)NCCOCCOCCOCCOCCOCCn2cc(CN3CCN(c4ccc(Nc5nc(NC6CCCCC6)c6nc[nH]c6n5)cc4)CC3)nn2)C(=O)O)cc1 (stereo not drawn) [MTX-PEG6-reversine]
Recurrence (x/2) [28]: 1 x/2
